Laboratory results reported in PMC8728392, “Synthesis, Anticancer Assessment, and Molecular Docking of Novel Chalcone-Thienopyrimidine Derivatives in HepG2 and MCF-7 Cell Lines” (Oxidative Medicine and Cellular Longevity, 2021).

Legend:
[1] = tested on: human liver cancer cell line (HepG2); experiment: MTT assay, cytotoxicity; type: cell-based; conditions: for survival percentage (mean ± SEM): HepG2, 24 hours
Description: (§1) Cancer cell lines were manipulated according to the method described by Sigounas et al.. In this method, the cell lines were grown as adherent monolayers in T75 flasks with Dulbecco's modified Eagle's medium (DMEM) supplemented with 10% Fetal Bovine Serum (FBS), 2 mM L-glutamine, and 1% streptomycin/penicillin. The cells were left to grow in a CO2 incubator at 37°C, 5% CO2, and 95% humidity until their confluence.
(§2) The 3-[4,5-dimethylthiazol-2-yl]-2,5-diphenyltetrazolium bromide (MTT) colorimetric assay was used to examine the sensitivity of cells to tested compounds (as anticancer drugs), as previously described. This assay depends on the production of a purple formazan derivative from the yellow tetrazolium bromide (MTT) by mitochondrial succinate dehydrogenase in viable cells. The percentage of cell survival was calculated as follows: (1) Percentage of survival=O.D.treated cells/O.D.control cells×100.
(§3) For preliminary screening of the cytotoxicity of synthesized compounds 3a-g, cells exposed to DMSO were used as a control. Plotting the relationship between the survival score and the compound concentration and calculating the IC50 (the concentration required to inhibit cell viability by 50%) were performed for each test compound according to Li et al. in comparison with the reference standard anticancer agent, 5-FU.
(§4) The 3-[4,5-dimethylthiazol-2-yl]-2,5-diphenyltetrazolium bromide (MTT) colorimetric assay was used to examine the sensitivity of cells to tested compounds (as anticancer drugs), as previously described by Hussein et al. (2017). This assay depend on the production of a purple formazan derivative from the yellow tetrazolium bromide (MTT) by mitochondrial succinate dehydrogenase in viable cells. Briefly, after harvesting the cells with 0.25% trypsin, the cell lines were suspended in DMEM. Cells were seeded in 96-well microtiter plates at a concentration of 5×10^4 cell/well in a fresh medium and left to attach to the plates for 24 h before treatment with the tested compounds 3a-g. Test compounds were dissolved in dimethyl sulfoxide (DMSO). After 24 hours, cells were incubated with the appropriate concentration ranges of compounds, the wells were diluted to […] with fresh medium and incubation was continued for 24 hours. Three wells were used for each concentration. After 24 hours of treatment, 20 μl of MTT solution (5mg/ml) was added and subsequently the plates were further incubated for 4 hours to allow the viable cells to biotransform the yellow-colored MTT into purple formazan crystals. The optical density (O.D.) of each well was measured spectrophotometrically at […] with an enzyme-linked immunosorbent assay (ELISA) microplate reader (BioTek, EL-800, USA). The percentage of cell survival was calculated as follows: […]

[2] = tested on: human breast cancer cell line (MCF-7); experiment: MTT assay, cytotoxicity; type: cell-based; conditions: for survival percentage (mean ± SEM): MCF-7, 24 hours
Description: as §1, §2, §3, §4

[3] = tested on: MCF-7 cell line; experiment: Annexin V-FITC/PI apoptotic assay; type: cell-based, human
Description: Annexin V-fluorescein isothiocyanate (FITC) and counterstaining with propidium iodide (PI) using the Annexin V-FITC/PI apoptosis detection kit (BD Biosciences, San Diego, CA) were employed to distinguish early and late apoptotic cells according to the manufacturer's directions. Annexin V conjugated with fluorescein isothiocyanate was used to quantify the loss of phosphatidylserine asymmetry in cell membranes involved in apoptosis, and propidium iodide can distinguish between early apoptosis, late apoptotic, and necrotic cells. Analyses were achieved by using a FACSCalibur flow cytometer (BD Biosciences, San Jose, CA).
Cells were gently washed twice with PBS accompanied by tryptic digestion (0.25% trypsin/EDTA) and washed yet again with PBS. All the cells including the floating and adherent ones were harvested, pooled and stained with […] in 1× binding buffer for 15 min at room temperature in the dark. Analyses were achieved by FACS Calibur flow cytometer (BD Biosciences, San Jose, CA).

[4] = tested on: Bax, Bcl-2, caspase-3, and caspase-9 in HepG2; experiment: RT-PCR relative expression of apoptosis markers; type: cell-based, human; conditions: IC50, 8-hour incubation, vs control
Description: We determined the effect of IC50 concentration of newly synthesized thienopyrimidine derivatives (3a-e and 3g and 3b and 3g) on the relative expression levels of some markers of apoptosis in HepG2 and MCF-7 cell lines, respectively. These included the antiapoptotic marker Bcl-2 as well as the apoptotic markers Bax, caspase-3, and caspase-9 [33]. BIORAD iScript™ One-Step RT-PCR kit with SYBR® Green was used to assess the relative levels of expression of apoptosis markers. The measurement was carried out according to the technique of reverse transcription polymerase chain reaction (RT-PCR) using the Rotor-Gene RT-PCR system, and the method of the used kit was done based on the manufacturer's instructions. The procedure of this assay included the following:
Based on the manufacturer's instructions, the Qiagen RNeasy Extraction Kit (Qiagen Ltd., UK) was used to isolate mRNA from approximately 1 × 10^7 cells according to the cell line.
Mix all the following reagents to get the total volume (50 μl): 2X SYBR® Green RTPCR reaction mixture (25 μl), forward primer […] (1.5 μl), reverse primer […] (1.5 μl), nuclease-free water (11 μl), RNA template (1 pg-100 ng total RNA) (10 μl), and iScript reverse transcriptase (1 μl) for One-Step RT-PCR.
The thermal cycler (Rotor-Gene) program used was as follows: one cycle for reverse transcription at 50°C for 10 minutes and one cycle for RT inactivation/Hot-start activation at 95°C for 5 minutes and then 45 cycles for qPCR (10 s at 95°C, 30 seconds for annealing at 55°C, and 30 seconds for extension at 72°C), and this is followed by the final extension (one cycle) at 72°C for 10 minutes.

Compound | survival percentage (mean ± SEM) ([1]; 4.8828125 μg/ml) [%] | survival percentage (mean ± SEM) ([1]; 9.765625 μg/ml) [%] | survival percentage (mean ± SEM) ([1]; 19.53125 μg/ml) [%] | survival percentage (mean ± SEM) ([1]; 39.0625 μg/ml) [%] | survival percentage (mean ± SEM) ([1]; 78.125 μg/ml) [%] | survival percentage (mean ± SEM) ([1]; 156.25 μg/ml) [%] | survival percentage (mean ± SEM) ([1]; 312.5 μg/ml) [%] | survival percentage (mean ± SEM) ([1]; 625 μg/ml) [%] | survival percentage (mean ± SEM) ([1]; 1250 μg/ml) [%] | survival percentage (mean ± SEM) ([1]; 2500 μg/ml) [%] | survival percentage (mean ± SEM) ([1]; 5000 μg/ml) [%] | survival percentage (mean ± SEM) ([1]; 10000 μg/ml) [%] | survival percentage (mean ± SEM) ([2]; 4.8828125 μg/ml) [%] | survival percentage (mean ± SEM) ([2]; 9.765625 μg/ml) [%] | survival percentage (mean ± SEM) ([2]; 19.53125 μg/ml) [%] | survival percentage (mean ± SEM) ([2]; 39.0625 μg/ml) [%] | survival percentage (mean ± SEM) ([2]; 78.125 μg/ml) [%] | survival percentage (mean ± SEM) ([2]; 156.25 μg/ml) [%] | survival percentage (mean ± SEM) ([2]; 312.5 μg/ml) [%] | survival percentage (mean ± SEM) ([2]; 625 μg/ml) [%] | also measured
CCOC(=O)Cn1c(SCC(=O)Nc2ccc(C(=O)/C=C\c3cc(OC)c(OC)c(OC)c3)cc2)nc2sc3c(c2c1=O)CCN(C(=O)OCC)C3 [Compound 3b, Ethyl (Z)-3-(2-Ethoxy-2-oxoethyl)-4-oxo-2-((2-oxo-2-((4-(3-(3,4,5 trimethoxyphenyl)acryloyl)phenyl)amino)ethyl)thio)-3,5,6,8 tetra-hydropyrido[4′,3′:4,5]thieno[2,3-d]pyrimidine-7(4H)-carboxylate] | 110.1 ± 0.046 | 67.9 ± 0.048 | 23.2 ± 0.012 | 18.4 ± 0.006 | 17.3 ± 0.007 | 16.2 ± 0.004 | 13.3 ± 0.004 | 12.9 ± 0.006 | 12.7 ± 0.002 | 12.2 ± 0.001 | 12.1 ± 0.001 | 12.1 ± 0.002 | 104.9 ± 0.016 | 102.6 ± 0.015 | 83.2 ± 0.022 | 31.8 ± 0.009 | 27.7 ± 0.026 | 21.3 ± 0.013 | 21.0 ± 0.001 | 20.3 ± 0.002 | times more activity compared to compounds 3a and 3c ([1]; HepG2 cell line): ~ 18 times; survival percentage (mean ± SEM) ([2]; 1250 μg/ml): 20.3 ± 0.001%; survival percentage (mean ± SEM) ([2]; 2500 μg/ml): 20.1 ± 0.001%; survival percentage (mean ± SEM) ([2]; 5000 μg/ml): 19.7 ± 0.002%; survival percentage (mean ± SEM) ([2]; 10000 μg/ml): 17.3 ± 0.001%; fold more effective anticancer activity than 5-FU ([2]; MCF-7 cell line): 846.5 fold; times more activity compared to compound 3g ([2]; MCF-7 cell line): ~ 2.5 times; total, early, and late apoptosis as well as necrosis relative to the control cells [3]: significant increase
CCOC(=O)Cn1c(SCC(=O)Nc2ccc(C(=O)/C=C\c3cccc([N+](=O)[O-])c3)cc2)nc2sc3c(c2c1=O)CC(C)(C)NC3(C)C [Compound 3g, Ethyl (Z)-2-(6,6,8,8-Tetramethyl-2-((2-((4-(3-(3-nitrophenyl)acryloyl)-phenyl)amino)-2-oxoethyl)thio)-4-oxo-5,6,7,8-tetrahydropyrido[4′,3′:4,5]thieno[2,3-d]pyrimidin-3(4H)-yl)acetate] | 131.3 ± 0.033 | 115.9 ± 0.098 | 97.8 ± 0.053 | 64.1 ± 0.038 | 17.5 ± 0.002 | 14.5 ± 0.003 | 14.1 ± 0.002 | 13.0 ± 0.003 | 12.5 ± 0.001 | 12.7 ± 0.002 | 12.5 ± 0.001 | 12.3 ± 0.002 | 105.3 ± 0.032 | 98.2 ± 0.023 | 96.4 ± 0.003 | 81.0 ± 0.009 | 28.0 ± 0.015 | 20.1 ± 0.003 | 19.4 ± 0.004 | 19.9 ± 0.001 | expression levels of Bcl-2 [4]: noticeably decreased; fold more potent activity than 5-FU ([1]; HepG2 cell line): 420.94 fold; survival percentage (mean ± SEM) ([2]; 1250 μg/ml): 19.9 ± 0.002%; survival percentage (mean ± SEM) ([2]; 2500 μg/ml): 19.0 ± 0.001%; survival percentage (mean ± SEM) ([2]; 5000 μg/ml): 18.9 ± 0.001%; survival percentage (mean ± SEM) ([2]; 10000 μg/ml): 15.3 ± 0.000%; fold more effective anticancer activity than 5-FU ([2]; MCF-7 cell line): 350.4 fold
